Experimental findings from patent publication US8603437B2, “Methods for tumor diagnosis and therapy” (President and Fellows of Harvard College, priority 2000, dated 2013) are described below.

Data set [1] is described as follows: Biodistribution in normal mice after i.v. injection. The class given is in vivo. The settings on record: for affinity / avidity for normal tissues: 1 hour and 24 hours; for injected dose remaining in the body by 24 hours: ~5 μCi/100 μl. How it is done:
Mice (n=30) were injected i.v. with the radiopharmaceutical (˜5 μCi/100 μl), the animals were killed at 1 hour (n=15) and 24 hours (n=15), and the radioactivity associated with blood, tissues, and organs was determined.
The biodistribution of ^125I-labeled Compound B was also examined in various tissues in normal mice. […] However, by 24 hours (FIG. 5), all tissues and organs (with the exception of minimal activity in the thyroid) were virtually void of radioactivity (<4% of the injected dose remained in the body by 24 hours).

For data set [2] the following is noted: mouse, in vivo, iv.
The nature of data set [3]: Chemical nature of radioactivity in blood (stability), TLC and autoradiography of blood samples. Format: in vivo, mice. The settings on record: blood samples from first 40 min, ethanol supernatant, TLC; single spot with same Rf as 127I-labeled Compound A. The text has this: The plates were run in acetonitrile-water (1.5:2) and autoradiographed.
Data set [4] is described as follows: Retention of radioactivity in forelimb after s.c. injection, and 24 hour biodistribution. The class given is in vivo, mice. How it is done:
[…] […] The animals were killed after 1 hour, 24 hours, and 48 hours, the radioactivity associated with the forelimbs was measured, and the percentage of radioactivity remaining was calculated (at the 24 hour time point, the biodistribution of radioactivity in various tissues and organs was also determined).

Data set [5] can be described thus: Blood clearance after i.v. injection in mice. As to conditions: bled over 1 hour, blood radioactivity.
For data set [6], the system named is alkaline phosphatase (ALP). As to conditions: ~10 μCi/100 μl 0.1 M Tris pH 7.2, 5 units ALP; only with active enzyme, not heat-inactivated ALP.
The subject of data set [7] is alkaline phosphatase (ALP). How it is done:
The animals were killed 1 hour later and the radioactivity in the forelimbs was measured.

A further data set in a line: Solubility observations. The class given is physicochemical.

A value given as a limit tells only on which side of the number the result lay.

Turning to `N.O=c1[nH]c(-c2ccccc2OP(=O)(O)O)nc2ccc(I)cc12` [^125-I labeled Compound A, Ammonium 2-(2′-Phosphoryloxyphenyl)-6-iodo-4-(3H)-quinazolinone], in data set [1], the “dehalogenation (thyroid activity)” value is recorded as “minimal dehalogenation”, the “affinity / avidity for normal tissues” value is on record as “low affinity to normal tissues” and the “injected dose remaining in the body by 24 hours” value is listed as < 20 % of the injected dose. The “blood clearance of radioactivity” value in data set [2] was “rapid biphasic blood clearance”. In addition, the “stability in blood: chemical nature of radioactivity” value in data set [3] is reported as “no evidence of free iodine”. The “fraction seeped out of the s.c. pocket by 24 hours” value in data set [4] (s.c. left forelimb, 5 μCi/5 μl saline followed by 5 μl DMSO) is listed as “greater than 98%”. Also, the T1/2β in data set [5] amounted to 51.1 ± 6.8 min. For the same compound, the “conversion to 125I-labeled Compound B” value in data set [6] is listed as “complete conversion”. For the same compound, the “radioactive content within forelimbs pre-injected with ALP” value in data set [7] (ALP 50-400 units/10 μl s.c., 20 μCi i.v. five minutes later, killed 1 hour later) was “increased with enzyme dose and plateaued at the highest concentrations”. In addition, the “uptake in forelimbs pre-injected with heat-inactivated ALP” value in data set [7] (heat-inactivated ALP s.c., i.v. prodrug, 1 hour) is reported as “no increase in uptake”.

As for `O=c1[nH]c(-c2ccccc2O)nc2ccc(I)cc12` [^125-I labeled Compound B, 2-(2′-Hydroxyphenyl)-6-iodo-4-(3H)-quinazolinone], in data set [1] (1 hour), the “radioactivity in all tissues examined at 1 hour” value is on record as < 15 % ID/g. Besides, in data set [1], the “affinity / avidity for normal tissues” value was “no avidity for any tissue” and the “injected dose remaining in the body by 24 hours” value is recorded as < 4 % of the injected dose. Further, the “localization of escaped radioactivity in normal tissues” value in data set [4] (biodistribution 24 hours after s.c. injection) is “does not localize in any normal tissues”. In data set [4] (s.c. forelimb), the “change in forelimb radioactivity between 24 hours and 48 hours” value is recorded as “no change”. Besides, the “injected activity remaining at the injection site at 24 hours” value in data set [4] (s.c. right forelimb, 5 μl DMSO solution followed by 5 μl saline) was 71±5%. Further, the “solubility in DMSO” value in the data set “Solubility observations” (100 μl DMSO) is recorded as “completely soluble”. Moreover, the “behaviour on adding water to the DMSO solution” value in the data set “Solubility observations” (100 μl water added to 100 μl DMSO) was “visible precipitate forms immediately”.
